Experimental data published in ChEMBL document CHEMBL4145536, “Design, synthesis and biological evaluation of novel bouchardatine analogs as potential inhibitors of adipogenesis/lipogenesis in 3T3-L1 adipocytes” (Eur J Med Chem, 2018).
Calls of active or inactive are those of the source. The calls are words filed in the database; no cut-off is given here.

Columns and labels:
[1] = test system: 3T3-L1; assay: Lipid lowering activity in mouse 3T3L1 cells assessed as decrease in triglyceride level at 10 uM for 6 days by oil red o-staining based assay relative to control; assay type: functional; design: scale not given: the % may be the effect or the level left
[2] = test system: HepG2; assay: Lipid lowering activity in human HepG2 cells assessed as decrease in triglyceride level at 10 uM for 6 days in presence of oleic acid by oil red o-staining based assay relative to control; assay type: functional; design: scale not given: the % may be the effect or the level left
[3] = test system: 3T3-L1; assay: Cytotoxicity against mouse 3T3L1 cells assessed as decrease in cell viability after 24 hrs by MTT assay; assay type: cell-based; conditions: 3T3-L1, 24 h
[4] = test system: HepG2; assay: Cytotoxicity against human HepG2 cells assessed as decrease in cell viability after 24 hrs by MTT assay; assay type: cell-based; conditions: HepG2, 24 h
[5] = test system: 3T3-L1; assay: Lipid lowering activity in mouse 3T3L1 cells assessed as decrease in triglyceride level at 10 uM for 6 days by oil red o-staining based microscopic assay; assay type: functional, cell-based
[6] = test system: 3T3-L1; assay: Lipid lowering activity in mouse 3T3L1 cells assessed as decrease in triglyceride level treated 2 days post confluent for 9 days by oil red o-staining based assay; assay type: functional, cell-based
[7] = test system: 3T3-L1; assay: Cytotoxicity against mouse 3T3L1 cells assessed as decrease in cell viability up to 10 uM measured up to 72 hrs by LDH release assay; assay type: cell-based; conditions: 3t3-l1, 72 h
[8] = organism: Mus musculus; assay: Induction of AMPKalpha phosphorylation at Thr172 residue in mouse 3T3L1 cells at 2 mM after 4 hrs by Western blot analysis; assay type: cell-based

| Structure (SMILES) | Activity [1] [%] | Activity [2] [%] | IC50 [3] [µM] | IC50 [4] [µM] | Activity [5] | Activity [6] | EC50 [6] [µM] | Activity [7] | Activity [8] |
| --- | --- | --- | --- | --- | --- | --- | --- | --- | --- |
| CN(C)CCCNc1nc(-c2[nH]c3ccccc3c2Br)nc2ccccc12 | 59.2 | 28.3 | 11.6 | 4.3 | Active | – | – | – | – |
| Brc1c(-c2nc(NCCN3CCCCC3)c3ccccc3n2)[nH]c2ccccc12 | 83.8 | 62.1 | 13.2 | 5.1 | – | – | – | – | – |
| Clc1c(-c2nc(NCCN3CCOCC3)c3ccccc3n2)[nH]c2ccccc12 | 54.6 | 46.9 | 37.9 | 15.6 | – | – | – | – | – |
| CN(C)CCNc1nc(-c2[nH]c3ccccc3c2Cl)nc2ccccc12 | 89.1 | 33 | 14.8 | 2.7 | – | – | – | – | – |
| OCCNc1nc(-c2[nH]c3ccccc3c2Cl)nc2ccccc12 | 38.3 | 53.1 | > 50 | 20.9 | – | – | – | – | – |
| O=c1[nH]c(-c2cc3ccccc3[nH]2)nc2ccccc12 | 43.8 | 14.9 | 43.8 | 14.9 | – | – | – | – | – |
| CCN(CC)CCNc1nc(-c2[nH]c3ccccc3c2Br)nc2ccccc12 | 86.5 | 50 | 15.4 | 6.1 | – | – | – | – | – |
| CC(C)CNc1nc(-c2[nH]c3ccccc3c2Cl)nc2ccccc12 | 45.7 | 42.8 | > 50 | 22.8 | Active | – | – | – | – |
| CN(C)CCCNc1nc(-c2[nH]c3ccccc3c2F)nc2ccccc12 | 45 | 32.7 | 22.2 | 6 | – | – | – | – | – |
| Clc1c(-c2nc(NCCCN3CCCC3)c3ccccc3n2)[nH]c2ccccc12 | 53.8 | 51.4 | 20.1 | 4.7 | – | – | – | – | – |
| CN(C)CCNc1nc(-c2[nH]c3ccccc3c2F)nc2ccccc12 | 57.3 | 24.2 | 21.7 | 4.2 | – | – | – | – | – |
| c1ccc2[nH]c(-c3nc(NCCCN4CCCC4)c4ccccc4n3)cc2c1 | 42.7 | 14.2 | > 50 | > 50 | – | – | – | – | – |
| Clc1nc(-c2[nH]c3ccccc3c2Br)nc2ccccc12 | 58.9 | 0.9 | > 50 | > 50 | Active | – | – | – | – |
| CC(C)CCNc1nc(-c2[nH]c3ccccc3c2F)nc2ccccc12 | 37.3 | 38.7 | > 50 | 28.7 | Active | – | – | – | – |
| Clc1c(-c2nc(NCCN3CCCC3)c3ccccc3n2)[nH]c2ccccc12 | 60.5 | 42.5 | 24.5 | 2.5 | – | – | – | – | – |
| Brc1c(-c2nc(NCCN3CCCC3)c3ccccc3n2)[nH]c2ccccc12 | 84.2 | 54.3 | 12.6 | 4.3 | – | – | – | – | – |
| CN(C)CCNc1nc(-c2[nH]c3ccccc3c2Br)nc2ccccc12 | 56.4 | 46.1 | 11.4 | 4.1 | Active | – | – | – | – |
| O=c1[nH]c(-c2[nH]c3ccccc3c2Cl)nc2ccccc12 | 35.4 | 51.9 | > 50 | > 50 | Active | – | – | – | – |
| O=Cc1c(-c2nc(NCCN3CCCC3)c3ccccc3n2)[nH]c2ccccc12 | 94.9 | – | – | – | – | – | – | – | – |

| Structure (SMILES) | Activity [1] [%] | Activity [2] [%] | IC50 [3] [µM] | IC50 [4] [µM] | Activity [5] | Activity [6] | EC50 [6] [µM] | Activity [7] | Activity [8] |
| --- | --- | --- | --- | --- | --- | --- | --- | --- | --- |
| c1ccc2[nH]c(-c3nc(NCCN4CCCC4)c4ccccc4n3)cc2c1 | 66.8 | 13.1 | 20.4 | 40.4 | – | – | – | – | – |
| CN(C)CCCNc1nc(-c2[nH]c3ccccc3c2C=O)nc2ccccc12 | 82.1 | 52.1 | 34.4 | 27.4 | Active | – | – | – | – |
| Fc1c(-c2nc(NCCN3CCCC3)c3ccccc3n2)[nH]c2ccccc12 | 64.2 | 23.6 | 24.5 | 7.3 | – | – | – | – | – |
| CN1CCN(CCCNc2nc(-c3[nH]c4ccccc4c3F)nc3ccccc23)CC1 | 42.5 | 22.5 | 19.8 | 5.2 | – | – | – | – | – |
| Clc1c(-c2nc(NCCN3CCCCC3)c3ccccc3n2)[nH]c2ccccc12 | 70.3 | 52 | 41.6 | 18 | Active | – | – | – | – |
| Brc1c(-c2nc(NCCCN3CCCCC3)c3ccccc3n2)[nH]c2ccccc12 | 84.9 | 62.3 | 14.9 | 6 | – | – | – | – | – |
| CN(C)CCNc1nc(-c2cc3ccccc3[nH]2)nc2ccccc12 | 42.3 | 0.6 | 12.9 | 25.3 | – | – | – | – | – |
| CN1CCN(CCCNc2nc(-c3[nH]c4ccccc4c3Cl)nc3ccccc23)CC1 | 83.4 | 41.2 | 14.4 | 2.7 | – | – | – | – | – |
| Brc1c(-c2nc(NCCCN3CCCC3)c3ccccc3n2)[nH]c2ccccc12 | 81.6 | 53.1 | 9.6 | 3.1 | – | – | – | – | – |
| Clc1c(-c2nc(NCCCN3CCOCC3)c3ccccc3n2)[nH]c2ccccc12 | 56.6 | 36.6 | 30.1 | 10.3 | – | – | – | – | – |
| Clc1nc(-c2[nH]c3ccccc3c2Cl)nc2ccccc12 | 45.6 | 37.7 | > 50 | > 50 | Active | – | – | – | – |
| OCCCNc1nc(-c2[nH]c3ccccc3c2F)nc2ccccc12 | 44.4 | 26.3 | > 50 | 30 | – | – | – | – | – |
| O=c1[nH]c(C2=Nc3ccccc3C2(F)F)nc2ccccc12 | 39.4 | 24.1 | > 50 | > 50 | Active | – | – | – | – |
| Fc1c(-c2nc(Cl)c3ccccc3n2)[nH]c2ccccc12 | 71.8 | 40.7 | > 50 | > 50 | Active | Dose-dependent effect | 0.92 | Non-Toxic | – |
| NC(=O)c1ncn([C@@H]2O[C@H](CO)[C@@H](O)[C@H]2O)c1N | – | – | – | – | – | – | – | – | Active |
| O=c1[nH]c(-c2[nH]c3ccccc3c2Br)nc2ccccc12 | 34.6 | 40.4 | > 50 | > 50 | Active | – | – | – | – |
| CN(C)CCCNc1nc(-c2cc3ccccc3[nH]2)nc2ccccc12 | 48.2 | 5.8 | 30.3 | 44.2 | – | – | – | – | – |
| CCN(CC)CCNc1nc(-c2[nH]c3ccccc3c2Cl)nc2ccccc12 | 87.5 | 15.6 | 19.2 | 4.6 | – | – | – | – | – |
| CN(C)CCCNc1nc(-c2[nH]c3ccccc3c2Cl)nc2ccccc12 | 49.5 | 35.8 | 18.1 | 4.1 | – | – | – | – | – |
